Laboratory results as given in ChEMBL document CHEMBL1156435, “Evidence for the involvement of carbon-centered radicals in the induction of apoptotic cell death by artemisinin compounds” (J Biol Chem, 2007).
Active and inactive are the calls of the source. The rule behind the calls is not given here.

Key:
HL-60 [1] = assay: Cytotoxicity against human HL60 cells after 72 hrs by MTT assay; type: functional, cell-based; conditions: HL-60, 72 h
Jurkat = assay: Cytotoxicity against human Jurkat cells after 72 hrs by MTT assay; type: functional, cell-based
PBMC [2] = assay: Cytotoxicity against human PBMC after 72 hrs by MTT assay; type: cell-based
HL-60 [3] = assay: Cytotoxicity against human HL60 cells assessed as LDH release after 72 hrs; type: functional, cell-based; conditions: HL-60, 72 h
HL-60 [4] = assay: Cytotoxicity against human HL60 cells after 6 hrs by MTT assay; type: functional, cell-based; conditions: HL-60, 6 h
HL-60 [5] = assay: Cytotoxicity against human HL60 cells after 16 hrs by MTT assay; type: functional, cell-based; conditions: HL-60, 16 h
HL-60 [6] = assay: Cytotoxicity against human HL60 cells after 24 hrs by MTT assay; type: functional, cell-based; conditions: HL-60, 24 h
HL-60 [7] = assay: Induction of apoptosis in human HL60 cells assessed as activation of caspase 3 by Western blotting; type: functional, cell-based
HL-60 [8] = assay: Induction of apoptosis in human HL60 cells assessed as activation of caspase 7 by Western blotting; type: functional, cell-based
[9] = Stability in human HL60 cells assessed as percentage drug remaining at 10 uM after 16 hrs; type: ADME, cell-based; conditions: HL-60 cells, read-out: Activity
[10] = Stability in human HL60 cells assessed as percentage drug remaining at 10 uM after 24 hrs; type: ADME, cell-based; conditions: HL-60 cells, read-out: Activity
HL-60 [11] = assay: Stability in human HL60 cells assessed as formation of 10-beta-(p-bromophenoxy)-dihydroartemisinin tetrahydrofuran acetate at 10 uM after 24 hrs; type: ADME, cell-based; conditions: hl-60, 24 h
[12] = Stability in human PBMC assessed as percentage drug remaining at 10 uM after 24 hrs; type: ADME, cell-based; conditions: read-out: Activity
HL-60 [13] = assay: Induction of apoptosis in human HL60 cells assessed as increase in sub-G0/G1 population at 1 uM after 24 hrs by flow cytometry; type: functional
HL-60 [14] = assay: Induction of apoptosis in human HL60 cells assessed as mitochondrial membrane depolarization at 1.0 uM after 12 hrs by flow cytometry; type: functional
HL-60 [15] = assay: Induction of apoptosis in human HL60 cells assessed as mitochondrial membrane depolarization at 1.0 uM after 24 hrs by flow cytometry; type: functional
PBMC [16] = assay: Induction of apoptosis in human PBMC assessed as mitochondrial membrane depolarization at 0.1 to 100 uM after 24 hrs; type: functional, cell-based
HL-60 [17] = assay: Induction of apoptosis in human HL60 cells assessed as increase in sub-G0/G1 population at 1 uM after 16 hrs by flow cytometry; type: functional
HL-60 [18] = assay: Induction of apoptosis in human HL60 cells assessed as pyknotic nuclear fragments at 10 uM after 24 hrs; type: functional, cell-based
HL-60 [19] = assay: Induction of apoptosis in human HL60 cells assessed as pyknotic nuclear fragments at 10 uM after 24 hrs in presence of Z-VAD-fmk; type: functional, cell-based
HL-60 [20] = assay: Reversal of induction of apoptosis in human HL60 cells assessed as inhibition of caspase 3 activation at 1 uM after 24 hrs by Western blotting in presence of Z-VAD-fmk; type: functional, cell-based
HL-60 [21] = assay: Induction of apoptosis in human HL60 cells assessed as mitochondrial membrane depolarization at 10 uM after 24 hrs by flow cytometry in presence of Z-VAD-fmk; type: functional, cell-based
HL-60 [22] = assay: Reversal of induction of apoptosis in human HL60 cells assessed as formation of sub-G0/G1 population at 10 uM after 24 hrs by flow cytometry in presence of Z-VAD-fmk; type: functional, cell-based

In the case of `C[C@H]1[C@@H](Oc2ccc(F)cc2)O[C@@H]2O[C@]3(C)CC[C@H]4[C@H](C)CC[C@@H]1[C@@]24O3`, the IC50 (HL-60 [1]) is reported as 25500 nM, the IC50 (Jurkat) is reported as 30700 nM and the IC50 (PBMC [2]) is reported as over 250000 nM. It also gave an IC50 (HL-60 [3]) of 32400 nM, an IC50 (HL-60 [4]) of over 100000 nM and an IC50 (HL-60 [5]) of 3780 nM. The IC50 (HL-60 [6]) was 460 nM, the Activity (HL-60 [7]) was “inactive” and the Activity (HL-60 [8]) was “inactive”.

In the case of `C[C@H]1[C@@H](Oc2ccc(Br)cc2)O[C@@H]2O[C@]3(C)CC[C@H]4[C@H](C)CC[C@@H]1[C@@]24OO3`, the IC50 (HL-60 [1]) is reported as 120 nM, the IC50 (Jurkat) is reported as 340 nM and the IC50 (PBMC [2]) is reported as over 250000 nM. For the same compound, the IC50 (HL-60 [3]) was 730 nM, the remaining at 16 h, 10 µM [9] was 37% and the remaining at 24 h, 10 µM [10] was 19%. The Activity (HL-60 [11]) was 7%, the remaining at 24 h, 10 µM [12] was 64% and the Activity (HL-60 [13]) was 60%.

`C[C@H]1[C@@H](Oc2ccc(F)cc2)O[C@@H]2O[C@]3(C)CC[C@H]4[C@H](C)CC[C@@H]1[C@@]24OO3` showed an IC50 (HL-60 [1]) of 540 nM, an IC50 (Jurkat) of 230 nM and an IC50 (PBMC [2]) of over 250000 nM. The IC50 (HL-60 [3]) was 760 nM, the IC50 (HL-60 [4]) was over 100000 nM and the IC50 (HL-60 [5]) was 6080 nM. It also gave an IC50 (HL-60 [6]) of 510 nM, an Activity (HL-60 [14]) of 65.8% and an Activity (HL-60 [15]) of 29.8%. The Activity (PBMC [16]) was “inactive”, the Activity (HL-60 [17]) was 24.3% and the Activity (HL-60 [13]) was 62.9%. For the same compound, the Activity (HL-60 [18]) was “Active” and the Activity (HL-60 [19]) was “inactive”.

`COc1cccc2c1C(=O)c1c(O)c3c(c(O)c1C2=O)C[C@@](O)(C(=O)CO)C[C@@H]3O[C@H]1C[C@H](N)[C@H](O)[C@H](C)O1` [DOXORUBICIN] gave an IC50 (Jurkat) of 90 nM.

With `C[C@H]1[C@@H](O)O[C@@H]2O[C@@]3(C)CC[C@H]4[C@H](C)CC[C@@H]1[C@@]24OO3` [ARTENIMOL] the IC50 (Jurkat) was 650 nM, the IC50 (PBMC [2]) was over 250000 nM and the IC50 (HL-60 [3]) was 1560 nM. The Activity (HL-60 [13]) was 60%, the Activity (HL-60 [18]) was “Active” and the Activity (HL-60 [19]) was “inactive”. The Activity (HL-60 [20]) was “Active”, the Activity (HL-60 [21]) was “Active” and the Activity (HL-60 [22]) was “Active”.
